Converted amounts (≈) assume the structure as drawn.
Columns and labels:
[1] = tested on: Acinetobacter baumannii; test: Antimicrobial activity against imipenem and meropenem-resistant Acinetobacter baumannii isolate JN45 by CLSI agar dilution method; format: functional
[2] = tested on: Acinetobacter baumannii; test: Antimicrobial activity against imipenem and meropenem-resistant Acinetobacter baumannii isolate ZJ36 by CLSI agar dilution method; format: functional
[3] = tested on: Acinetobacter baumannii; test: Antimicrobial activity against imipenem and meropenem-resistant Acinetobacter baumannii isolate DL34 by CLSI agar dilution method; format: functional
[4] = tested on: Acinetobacter baumannii; test: Antimicrobial activity against imipenem and meropenem-resistant Acinetobacter baumannii isolate BJ3-9 by CLSI agar dilution method; format: functional
[5] = tested on: Acinetobacter baumannii; test: Antimicrobial activity against imipenem and meropenem-resistant Acinetobacter baumannii isolate BJ52 by CLSI agar dilution method; format: functional
[6] = tested on: Acinetobacter baumannii; test: Antimicrobial activity against imipenem and meropenem-resistant Acinetobacter baumannii isolate FZ84 by CLSI agar dilution method; format: functional
[7] = tested on: Acinetobacter baumannii; test: Antimicrobial activity against imipenem and meropenem-resistant Acinetobacter baumannii isolate PU4A22 by CLSI agar dilution method; format: functional
[8] = tested on: Acinetobacter baumannii; test: Antimicrobial activity against imipenem and meropenem-resistant Acinetobacter baumannii isolate ZJ32 by CLSI agar dilution method; format: functional
[9] = tested on: Acinetobacter baumannii; test: Antimicrobial activity against imipenem and meropenem-resistant Acinetobacter baumannii isolate PUA1 by CLSI agar dilution method; format: functional
[10] = tested on: Acinetobacter phenon 5; test: Antimicrobial activity against imipenem and meropenem-resistant Acinetobacter phenon 5 isolate PUA6 by CLSI agar dilution method
[11] = tested on: Acinetobacter genospecies 10/11; test: Antimicrobial activity against imipenem and meropenem-resistant Acinetobacter genospecies 10/11 isolate ZS5 by CLSI agar dilution method
[12] = tested on: Acinetobacter baumannii; test: Antimicrobial activity against imipenem and meropenem-resistant Acinetobacter baumannii isolate FW-F1 by CLSI agar dilution method; format: functional
[13] = tested on: Acinetobacter baumannii; test: Antimicrobial activity against imipenem and meropenem-resistant Acinetobacter baumannii isolate NJ59 by CLSI agar dilution method; format: functional
[14] = tested on: Acinetobacter baumannii; test: Antimicrobial activity against imipenem and meropenem-resistant Acinetobacter baumannii isolate CY7 by CLSI agar dilution method; format: functional
[15] = tested on: Acinetobacter baumannii; test: Antimicrobial activity against imipenem and meropenem-resistant Acinetobacter baumannii isolate PU4A1 by CLSI agar dilution method; format: functional
[16] = tested on: Acinetobacter baumannii; test: Antimicrobial activity against imipenem and meropenem-resistant Acinetobacter baumannii isolate ZJ49 by CLSI agar dilution method; format: functional
[17] = tested on: Acinetobacter genospecies 10/11; test: Antimicrobial activity against imipenem and meropenem-resistant Acinetobacter genospecies 10/11 isolate ZS15 by CLSI agar dilution method
[18] = tested on: Acinetobacter phenon 6/ct 13TU (Acinetobacter sp.); test: Antimicrobial activity against imipenem and meropenem-resistant Acinetobacter phenon 6/ct 13TU isolate PU86 by CLSI agar dilution method
[19] = tested on: Acinetobacter phenon 6/ct 13TU; test: Antimicrobial activity against imipenem and meropenem-resistant Acinetobacter phenon 6/ct 13TU isolate FZ4A18 by CLSI agar dilution method
[20] = tested on: Acinetobacter baumannii; test: Antimicrobial activity against imipenem and meropenem-resistant Acinetobacter baumannii isolate BJ3-23 by CLSI agar dilution method; format: functional
[21] = tested on: Acinetobacter baumannii; test: Antimicrobial activity against imipenem and meropenem-resistant Acinetobacter baumannii isolate PU73 by CLSI agar dilution method; format: functional
[22] = tested on: Acinetobacter genospecies 13TU; test: Antimicrobial activity against imipenem and meropenem-resistant Acinetobacter genospecies 13TU isolate CY6 by CLSI agar dilution method
[23] = tested on: Acinetobacter genospecies 3 (Acinetobacter genomosp. 3); test: Antimicrobial activity against imipenem and meropenem-resistant Acinetobacter genospecies 3 isolate PU78 by CLSI agar dilution method; conditions: Acinetobacter genospecies 3, isolate PU78
[24] = tested on: Acinetobacter baumannii; test: Antimicrobial activity against imipenem and meropenem-resistant Acinetobacter baumannii isolate ZJ58 by CLSI agar dilution method; format: functional
[25] = tested on: Acinetobacter baumannii; test: Antimicrobial activity against imipenem and meropenem-resistant Acinetobacter baumannii isolate BJ55 by CLSI agar dilution method; format: functional
[26] = tested on: Acinetobacter genospecies 3; test: Antimicrobial activity against imipenem and meropenem-resistant Acinetobacter genospecies 3 isolate PUA7 by CLSI agar dilution method
[27] = tested on: Acinetobacter genomosp. 3; test: Antimicrobial activity against imipenem and meropenem-resistant Acinetobacter genospecies 3 isolate PU78 by CLSI agar dilution method; conditions: Acinetobacter genomosp. 3, isolate PU78
[28] = tested on: Acinetobacter phenon 6/ct 13TU; test: Antimicrobial activity against imipenem and meropenem-resistant Acinetobacter phenon 6/ct 13TU isolate PU86 by CLSI agar dilution method
[29] = tested on: Acinetobacter genospecies 3; test: Antimicrobial activity against imipenem and meropenem-resistant Acinetobacter genospecies 3 isolate PU78 by CLSI agar dilution method

Compound | MIC [1] [µg/mL] | MIC [2] [µg/mL] | MIC [3] [µg/mL] | MIC [4] [µg/mL] | MIC [6] [µg/mL] | MIC [7] [µg/mL] | MIC [8] [µg/mL] | MIC [9] [µg/mL] | MIC [10] [µg/mL] | MIC [11] [µg/mL] | MIC [12] [µg/mL] | MIC [14] [µg/mL] | MIC [15] [µg/mL] | MIC [16] [µg/mL] | MIC [20] [µg/mL] | MIC [21] [µg/mL] | MIC [22] [µg/mL] | MIC [24] [µg/mL] | MIC [25] [µg/mL] | MIC [26] [µg/mL] | also measured
C[C@@H](O)[C@H]1C(=O)N2C(C(=O)O)=C(SCCNC=N)C[C@H]12 [IMIPENEM ANHYDROUS] | 32 (≈ 107 µM) | 16 (≈ 53.4 µM) | 32 (≈ 107 µM) | 64 (≈ 214 µM) | 16 (≈ 53.4 µM) | 64 (≈ 214 µM) | 64 (≈ 214 µM) | 64 (≈ 214 µM) | 64 (≈ 214 µM) | 64 (≈ 214 µM) | 64 (≈ 214 µM) | 64 (≈ 214 µM) | 64 (≈ 214 µM) | 32 (≈ 107 µM) | 64 (≈ 214 µM) | 64 (≈ 214 µM) | 32 (≈ 107 µM) | 16 (≈ 53.4 µM) | 32 (≈ 107 µM) | 16 (≈ 53.4 µM) | MIC [5]: 32 µg/mL (≈ 107 µM); MIC [13]: 16 µg/mL (≈ 53.4 µM); MIC [17]: 64 µg/mL (≈ 214 µM); MIC [18]: 16 µg/mL (≈ 53.4 µM); MIC [19]: 16 µg/mL (≈ 53.4 µM); MIC [23]: 16 µg/mL (≈ 53.4 µM)
CN(C)c1ccc(O)c2c1C[C@H]1C[C@H]3[C@H](N(C)C)C(O)=C(C(N)=O)C(=O)[C@@]3(O)C(O)=C1C2=O [MINOCYCLINE] | 0.5 (≈ 1.09 µM) | 32 (≈ 69.9 µM) | 8 (≈ 17.5 µM) | 4 (≈ 8.74 µM) | 4 (≈ 8.74 µM) | 2 (≈ 4.37 µM) | 16 (≈ 35 µM) | 4 (≈ 8.74 µM) | 0.5 (≈ 1.09 µM) | 8 (≈ 17.5 µM) | 2 (≈ 4.37 µM) | 0.5 (≈ 1.09 µM) | 2 (≈ 4.37 µM) | 32 (≈ 69.9 µM) | 8 (≈ 17.5 µM) | 8 (≈ 17.5 µM) | 0.25 (≈ 0.546 µM) | 16 (≈ 35 µM) | 16 (≈ 35 µM) | 0.5 (≈ 1.09 µM) | MIC [5]: 8 µg/mL (≈ 17.5 µM); MIC [13]: 4 µg/mL (≈ 8.74 µM); MIC [17]: 0.25 µg/mL (≈ 0.546 µM); MIC [18]: ≤ 0.125 µg/mL; MIC [19]: 0.5 µg/mL (≈ 1.09 µM); MIC [27]: ≤ 0.125 µg/mL
COLISTIN | 1 | 1 | 0.5 | 1 | 0.5 | 1 | 1 | 0.5 | 0.5 | 0.5 | 0.5 | 0.5 | 0.5 | 1 | 1 | 1 | 0.5 | 1 | 0.5 | 0.5 | MIC [5]: 1 µg/mL; MIC [13]: 0.5 µg/mL; MIC [17]: 1 µg/mL; MIC [28]: 1 µg/mL; MIC [19]: 1 µg/mL; MIC [29]: 1 µg/mL
CO[C@H]1/C=C/O[C@@]2(C)Oc3c(C)c(O)c4c(O)c(c(/C=N/N5CCN(C)CC5)c(O)c4c3C2=O)NC(=O)/C(C)=C\C=C\[C@H](C)[C@H](O)[C@@H](C)[C@@H](O)[C@@H](C)[C@H](OC(C)=O)[C@@H]1C [RIFAMPIN] | > 256 | 8 (≈ 9.72 µM) | 4 (≈ 4.86 µM) | 8 (≈ 9.72 µM) | 128 (≈ 156 µM) | 4 (≈ 4.86 µM) | 16 (≈ 19.4 µM) | 32 (≈ 38.9 µM) | > 256 | 256 (≈ 311 µM) | 8 (≈ 9.72 µM) | 4 (≈ 4.86 µM) | 4 (≈ 4.86 µM) | 8 (≈ 9.72 µM) | 8 (≈ 9.72 µM) | 4 (≈ 4.86 µM) | > 256 | 8 (≈ 9.72 µM) | 8 (≈ 9.72 µM) | 128 (≈ 156 µM) | MIC [5]: 8 µg/mL (≈ 9.72 µM); MIC [13]: 8 µg/mL (≈ 9.72 µM); MIC [17]: > 256 µg/mL; MIC [18]: 256 µg/mL (≈ 311 µM); MIC [19]: 4 µg/mL (≈ 4.86 µM); MIC [23]: 4 µg/mL (≈ 4.86 µM)
C[C@H]1COc2c(N3CCN(C)CC3)c(F)cc3c(=O)c(C(=O)O)cn1c23.C[C@H]1COc2c(N3CCN(C)CC3)c(F)cc3c(=O)c(C(=O)O)cn1c23.O [LEVOFLOXACIN] | 0.5 | 4 |  | 4 | > 32 | 4 | 16 | 16 | 0.06 | > 32 | 4 | > 32 | 4 | 4 | 4 | 16 | 0.12 | > 32 | 16 | 0.06 | MIC [17]: 4 µg/mL; MIC [18]: 0.125 µg/mL; MIC [19]: 0.12 µg/mL; MIC [23]: 0.125 µg/mL
GENTAMICIN | > 256 | 1 | > 256 | > 256 | > 256 | > 256 | > 256 | > 256 | > 256 | > 256 | > 256 | > 256 | > 256 | > 256 | > 256 | > 256 | > 256 | > 256 | > 256 | > 256 | MIC [5]: 4 µg/mL; MIC [13]: > 256 µg/mL; MIC [28]: > 256 µg/mL; MIC [29]: 1 µg/mL
NCC[C@H](O)C(=O)N[C@@H]1C[C@H](N)[C@@H](O[C@H]2O[C@H](CN)[C@@H](O)[C@H](O)[C@H]2O)[C@H](O)[C@H]1O[C@H]1O[C@H](CO)[C@@H](O)[C@H](N)[C@H]1O [AMIKACIN] | 128 (≈ 219 µM) | 2 (≈ 3.42 µM) | > 256 | > 256 | > 256 | 128 (≈ 219 µM) | > 256 | 8 (≈ 13.7 µM) | 2 (≈ 3.42 µM) | > 256 | > 256 | > 256 | > 256 | 256 (≈ 437 µM) | > 256 | > 256 | 32 (≈ 54.6 µM) | 64 (≈ 109 µM) | > 256 | 4 (≈ 6.83 µM) | MIC [5]: 2 µg/mL (≈ 3.42 µM); MIC [13]: > 256 µg/mL; MIC [17]: 256 µg/mL (≈ 437 µM); MIC [18]: 4 µg/mL (≈ 6.83 µM); MIC [19]: 32 µg/mL (≈ 54.6 µM); MIC [23]: 1 µg/mL (≈ 1.71 µM)
C[C@@H](O)[C@H]1C(=O)N2C(C(=O)O)=C(S[C@@H]3CN[C@H](C(=O)N(C)C)C3)[C@H](C)[C@H]12 [MEROPENEM] | 16 (≈ 41.7 µM) | 16 (≈ 41.7 µM) | 32 (≈ 83.4 µM) | 32 (≈ 83.4 µM) | 16 (≈ 41.7 µM) | 128 (≈ 334 µM) | 32 (≈ 83.4 µM) | 64 (≈ 167 µM) | 64 (≈ 167 µM) | 128 (≈ 334 µM) | 64 (≈ 167 µM) | 64 (≈ 167 µM) | 64 (≈ 167 µM) | 32 (≈ 83.4 µM) | 64 (≈ 167 µM) | 64 (≈ 167 µM) | 32 (≈ 83.4 µM) | 32 (≈ 83.4 µM) | 32 (≈ 83.4 µM) | 32 (≈ 83.4 µM) | MIC [5]: 32 µg/mL (≈ 83.4 µM); MIC [13]: 16 µg/mL (≈ 41.7 µM); MIC [17]: 64 µg/mL (≈ 167 µM); MIC [18]: 32 µg/mL (≈ 83.4 µM); MIC [19]: 16 µg/mL (≈ 41.7 µM); MIC [23]: 32 µg/mL (≈ 83.4 µM)
CC(C)(O/N=C(\C(=O)N[C@@H]1C(=O)N2C(C(=O)[O-])=C(C[n+]3ccccc3)CS[C@H]12)c1csc(N)n1)C(=O)O [CEFTAZIDIME] | > 256 | 16 (≈ 29.3 µM) | 64 (≈ 117 µM) | 8 (≈ 14.6 µM) | > 256 | > 256 | 64 (≈ 117 µM) | > 256 | > 256 | > 256 | > 256 | > 256 | > 256 | 32 (≈ 58.5 µM) | > 256 | > 256 | > 256 | 16 (≈ 29.3 µM) | > 256 | > 256 | MIC [5]: 16 µg/mL (≈ 29.3 µM); MIC [13]: > 256 µg/mL; MIC [17]: 16 µg/mL (≈ 29.3 µM); MIC [18]: > 256 µg/mL; MIC [19]: > 256 µg/mL; MIC [23]: 4 µg/mL (≈ 7.32 µM)

From ChEMBL document CHEMBL1137659, “Molecular epidemiology of clinical isolates of carbapenem-resistant Acinetobacter spp. from Chinese hospitals” (2007)
